According to patent US6130220A, “Sulfamide-metalloprotease inhibitors” (Syntex (USA) Inc., priority 1999, dated 2000):

Columns and labels:
[1] = test system: TNF-α release from Human Monomac 6 cells; assay: Inhibition of TNF release in vitro, Monomac 6 cells, LPS/PMA; format: cell-based; conditions: 2 h; for inhibition at 2 µM: MONO-MAC-6, 2 μM, read-out: TNF-α % inhibition, Conc. 2 μM; for inhibition at 10 µM: MONO-MAC-6, 10 μM, read-out: TNF-α % inhibition, Conc. 10 μM
Method: The activity of compounds of this invention in inhibiting the TNF release was determined, using the a minor modification of the method described in Pradines-Figueres, A. and Raetz, C. R. H., J. Biol. Chem., 267 (32), 23261, (1992).
Human Monomac 6 cells (Ziegler-Heitbrock, H. W. L., et al., Int. J. Cancer, 41, 456, (1988)) were cultured at 37° C. in RPMI 1640 medium containing 10% fetal calf serum to a density of 1×10^5 cells/ml. 0.23 ml of these cells were placed in each well of a tissue culture plate and the cells were incubated for 15 min. The test compounds were dissolved in above mentioned medium and added and the incubation was continued for an additional 15 min. 10 μl of an lipopolysaccharide/phorbol-12-myristate-13-acetate (LPS/PMA) mixture was added such that the final concentration of lipopolysaccharide was 10 ng/ml and the final concentration of phorbol-12-myristate-13-acetate was 30 ng/ml. The cells were incubated for 2 h after which the plate was centrifuged and the medium was removed and analyzed for TNF content. The analysis was performed using a TNF Quantikine® Inmunoassay (R & D Systems, Minneapolis, Minn. 55413) by following the manufacturer's protocol.
The TNF-α inhibitory activity of test materials, i.e., the measure of the TNF-α content in the test group relative to the vehicle treated group (control group) was: […]

[2] = test system: TNF-α; assay: Inhibition of LPS induced TNF-α production in mice in vivo; conditions: s.c. compound, LPS 50 μg/mouse i.p. 1 h later, blood after 1.5 h
Method: The activity of compounds of this invention in inhibiting the TNF-α release was determined, using a minor modification of the methods described in Zanetti, G.; Heumann, D., et. al., "Cytokine production after intravenous or peritoneal Gram-negative bacterial challenge in mice" J. Immunol., 148, 1890, (1992) and Sekut, L., Menius, J. A., et. al., "Evaluation if the significance of elevated levels of systemic and localized tumor necrosis factor in different animal models of inflammation" J. Lab. Clin. Med., 124, 813, (1994).
Female Balbic mice were anesthetized and injected subcutaneously with the test compounds dissolved in CMC vehicle or hydroxypropylmethyl cellulose based vehicle. Control animals received only the vehicle. After 1 h, LPS (50 μg/mouse, Sigma #13129, Sigma Chemical Co., St. Louis, Mo.) was injected intraperitoneally. After 1.5 h, blood was collected from the retro-rbital plexus region of the animals in a miicrotainer serum separator tube (Becton Dickinson, Cat. No. #5960, Becton Dickinson & Co., Franklin Lakes, N.J.). The sera was separated and the amount of TNF-α was determined using the EM-TNFA® kit (Endogen, Woburn, Mass.) by following the manufacturer's protocol.

[3] = target: Collagenase-III; assay: MMP enzymatic assay, hydrolysis of MCA-Pro-Leu-Gly-Leu-DPA-Ala-Arg-NH2, Collagenase-III; format: biochemical; conditions: 37° C., pH 7.5, 2.5% DMSO
Method: The propeptide and catalytic domain portion of human collagenase-3 was expressed in E. Coli as an N-terminal fusion protein with ubiquitin. After purification, the catalytic domain was released by treatment with 1 mM APMA for 1 hour at 37° C., and then purified by zinc chelate chromatography.
Rat collagenase-3 was purified in active form from the culture media of uterine smooth muscle cells as described in Roswit, W. T. et al., Arch. Biochem. Biophys., 225, 285-295 (1983).
The matrix metalloprotease inhibitory activity of compounds of this invention in vitro was determined based on the hydrolysis of MCA-Pro-Leu-Gly-Leu-DPA-Ala-Arg-NH2 (Bachem, Inc.) at 37° C. as described in Knight, C. G., et al., FEBS Lett., 296, 263-266 (1992).
The matrix metalloprotease enzyme was diluted with assay buffer (50 mM Tricine pH 7.5, 200 mM NaCl, 10 mM CaCl2, and 0.005% Brij-35) containing 10 μmole of above substrate dissolved in DMSO. Compounds of the invention dissolved in DMSO or only DMSO (control samples) were added such that the final DMSO concentration in all assays was 2.5%. The fluorescence changes were monitored with a Perkin-Elmer LS-50B flourimeter using an excitation wavelength of 328 nm and an emission wavelength of 393 nm.

[4] = test system: collagen matrix of cartilage explants; assay: Degradation of cartilage plug in vitro (hydroxyproline release); format: cell-based; conditions: bovine knee cartilage explants, IL-1-α 20 ng/ml, compounds at 10 to 300 nm, 21 days, hydroxyproline content vs control
Method: The ability of the compounds of this invention to inhibit the degradation of the collagen matrix (as judged by release of hydroxyproline) was determined by the cartilage plug degradation assay in vitro by following a slight modification of the method described in Spirito, S., Doughty, E., et al., "Metalloproteinase inhibitors halt collagen breakdown in IL-1 induced bovine nasal cartilage cultures" Inflamm. Res., 44, Supp. 2: S131-S132, (1995).
Cartilage explants prepared from freshly sacrificed bovine knee joints were added to the culture medium (Dubelco's modified eagle medium, Gibco #21063-001, Gibco BRL Products, Gaithersburg, Md.), without phenol red, but with HEPES, and L-glutamine and fungizone 2.5 μglml, gentamicin 50 μg/ml, penicillin 100 U/ml, and streptomycin 100 μg/ml). The cultures were stimulated with IL-1-α at a final concentration of 20 ng/ml. Compounds of Formula (I), were added at concentrations between 10 and 300 nm in DMSO. The control samples contained only IL-1-α. The cultures were incubated at 37° C. in an atmosphere of air with 6% CO2 for 21 days during which time the medium was changed twice/week. The cartilage plugs were removed, hydrolyzed and the hydroxyproline content was determined. The MMP inhibitory activity of test materials is the measure of the hydroxyproline content in the test group relative to the vehicle treated group (control group).

[5] = test system: collagen matrix of bovine nasal cartilage plugs; assay: Cartilage plug degradation in vivo (cartilage plug implant assay); conditions: female Lewis rats, implanted bovine nasal cartilage plugs, hydroxyproline content vs vehicle, 8 or 9 days

Compound `N#Cc1ccc2[nH]cc(C3CCN(S(=O)(=O)N4CCCC[C@@H]4C(=O)NO)CC3)c2c1` [compound 294, N-hydroxy-1-[4-(5-cyanoindol-3-yl)piperidine-1-sulfonyl]piperidine-2-(R)-carboxamide] has an inhibition at 2 µM [1] of 97%, a TNF-α % inhibition [2] of 90% and an IC50 [3] of 340 nM.

For `CC(C)[C@@H](NS(=O)(=O)N1CCN(c2ccc(C(F)(F)F)cn2)CC1)C(=O)NO` [compound 60], the “% protection” value [4] was 89%.

In the case of `CC(C)[C@@H](NS(=O)(=O)N1CCC(Oc2ccc(F)cc2)CC1)C(=O)NO` [compound 179, N-hydroxy-2-(R)-{[4-(4-fluorophenoxy)piperidine-1-sulfonyl]amino}-3-methylbutyramide], the inhibition at 10 µM [1] is reported as less than 15%, the “% protection” value [5] is reported as 63% and the IC50 [3] is reported as 0.073 nM.

With `O=C(c1ccc(Cl)cc1)C1CCN(S(=O)(=O)N2CCN(C(=O)c3cnccn3)C[C@@H]2C(=O)NO)CC1` [compound 319, N-hydroxy-1-[4-(4-chlorobenzoyl)piperidine-1-sulfonyl]-4-(1,4-pyrazin-2-yl-carbonyl)-piperazine-2-(R)-carboxamide] the inhibition at 2 µM [1] was 81% and the TNF-α % inhibition [2] was 50%.

Compound `C[C@@H](NS(=O)(=O)N1CCC(c2cccc3ccccc23)CC1)C(=O)NO` [compound 216] has a TNF-α % inhibition [2] of 41%.

`O=C(NO)[C@H]1CCCCN1S(=O)(=O)N1CCCC1` [compound 232, N-hydroxy-1-(pyrrolidine-1-sulfonyl)piperidine-2-(R)-carboxamide] showed a TNF-α % inhibition [2] of 73%.

Compound `O=C(NO)C1CCCCN1S(=O)(=O)N1CCC(c2c[nH]c3ccc(F)cc23)CC1` (racemic) [compound 254, N-hydroxy-1-[4-(5-fluoroindol-3-yl)piperidine-1-sulfonyl]piperidine-2-(RS)-carboxamide] has an inhibition at 10 µM [1] of 94% and an IC50 [3] of 181 nM.

Work on `CN(C)C(=O)N1CCN(S(=O)(=O)N2CCC(C(=O)c3ccc(Cl)cc3)CC2)[C@@H](C(=O)NO)C1` [compound 298, N-hydroxy-1-[4-(4-chlorobenzoyl)piperidine-1-sulfonyl]-4-(N,N-dimethylaminocarbonyl)piperazine-2-(R)-carboxamide] yielded an inhibition at 2 µM [1] of 70% and an IC50 [3] of 0.2 nM.

For `O=CN1CCN(S(=O)(=O)N2CCC(C(=O)c3ccc(Cl)cc3)CC2)C(C(=O)NO)C1` (racemic) [compound 262, N-hydroxy-1-[4-(4-chlorobenzoyl)piperidine-1-sulfonyl]-4-formylpiperazine-2-(RS)-carboxamide], the inhibition at 2 µM [1] was 90%, the TNF-α % inhibition [2] was 50% and the IC50 [3] was 0.13 nM.

For `CC(C)[C@@H](NS(=O)(=O)N1CCN(c2ccc(OCc3ccccc3)cc2)CC1)C(=O)NO` [compound 74, N-hydroxy-2-(R)-{[4-(4-benzyloxyphenyl)piperazine-1-sulfonyl]amino}-3-methylbutyramide], the “% protection” value [5] was 46% and the IC50 [3] was 0.73 nM.

With `O=C(c1ccc(Cl)cc1)C1CCN(S(=O)(=O)N2CCCC[C@@H]2C(=O)NO)CC1` [compound 242, N-hydroxy-1-[4-(4-chlorobenzoyl)piperidine-1-sulfonyl]piperidine-2-(R)-carboxamide] the inhibition at 10 µM [1] was 85%, the “% protection” value [4] was 27% and the IC50 [3] was 0.063 nM.

Compound `O=C(NO)C1CCCCN1S(=O)(=O)N1CCCCC1` (racemic) [compound 233] has a TNF-α % inhibition [2] of 46%.

`C[C@@H](NS(=O)(=O)N1CCN(C(=O)Nc2ccc(Cl)cc2)CC1)C(=O)NO` [compound 177, N-hydroxy-2-(R)-{[4-(4-chlorophenylaminocarbonyl)piperazine-1-sulfonyl]amino}propionamide] showed an inhibition at 10 µM [1] of less than 15% and an IC50 [3] of 1.6 nM.

Work on `O=C(NO)C1CCCCN1S(=O)(=O)N1CCC(c2c[nH]c3cc(Cl)ccc23)CC1` (racemic) [compound 256, N-hydroxy-1-[4-(6-chloroindol-3-yl)piperidine-1-sulfonyl]piperidine-2-(RS)-carboxamide] yielded an inhibition at 10 µM [1] of 79% and an IC50 [3] of 33 nM.

For `CC(C)[C@@H](NS(=O)(=O)N1CCC(C(=O)c2ccc(Cl)cc2)CC1)C(=O)NO` [compound 134], the TNF-α % inhibition [2] was 42%.

With `CN(C)S(=O)(=O)N1CCN(S(=O)(=O)N2CCC(C(=O)c3ccc(Cl)cc3)CC2)[C@@H](C(=O)NO)C1` [compound 315, N-hydroxy-1-[4-(4-chlorobenzoyl)piperidine-1-sulfonyl]-4-(N,N-dimethylaminosulfonyl)piperazine-2-(R)-carboxamide] the inhibition at 2 µM [1] was 86% and the IC50 [3] was 0.1 nM.

Compound `O=C(NO)C1CCCCN1S(=O)(=O)N1CCN(c2ccc(Cl)cc2)CC1` (racemic) [compound 234, N-hydroxy-1-[4-(4-chlorophenyl)piperazine-1-sulfonyl]piperidine-2-(RS)-carboxamide] has a TNF-α % inhibition [2] of 46%.

Compound `N#Cc1ccc2[nH]cc(C3CCN(S(=O)(=O)N4CCN(C(=O)N5CCOCC5)C[C@@H]4C(=O)NO)CC3)c2c1` [compound 321, N-hydroxy-4-(morpholin-4-ylcarbonyl)-1-[4-(5-cyanoindol-3-yl)piperdine-1-sulfonyl]piperazine-2-(R)-carboxamide] has an inhibition at 2 µM [1] of 93% and a TNF-α % inhibition [2] of 50%.

`CC(=O)N1CCN(S(=O)(=O)N2CCC(C(=O)c3ccc(Cl)cc3)CC2)C(C(=O)NO)C1` (racemic) [compound 255, N-hydroxy-4-acetyl-1-[4-(4-chlorobenzoyl)piperidine-1-sulfonyl]piperazine-2-(RS)-carboxamide] was tested, and the inhibition at 10 µM [1] was 97% and the IC50 [3] was 0.19 nM.

`CN(C)C(=O)N1CCN(S(=O)(=O)N2CCC(c3c[nH]c4c(F)c(F)c(F)c(F)c34)CC2)[C@@H](C(=O)NO)C1` [compound 309, N-hydroxy-4-(N,N-dimethylaminocarbonyl)-1-[4-(4,5,6,7-tetrafluoroindol-3-yl)piperidine-1-sulfonyl]piperazine-2-(R)-carboxamide] was tested, and the inhibition at 2 µM [1] was 94%, the TNF-α % inhibition [2] was 46% and the IC50 [3] was 500 nM.

With `C[C@@H](NS(=O)(=O)N1CC=C(c2ccc(Cl)cc2)CC1)C(=O)NO` [compound 401] the inhibition at 10 µM [1] was 97% and the IC50 [3] was 0.19 nM.
